Reference: US20180118756A1, “COMPOSITIONS AND METHODS OF MODULATING SHORT-CHAIN DEHYDROGENASE ACTIVITY” (CASE WESTERN RESERVE UNIVERSITY, priority 2015, published 2018)
Values after ≈ are worked out from the molar mass of the structure shown.

molecular target: T1, recombinant 15-PGDH (Homo sapiens, UniProt P15428); assay: IC50 for inhibiting enzymatic activity of recombinant 15-PGDH in an in vitro assay; format: biochemical; conditions: Enzyme Inhibitor IC50 (nM) at 5 nM 15-PGDH, recombinant human 15-PGDH at 5 nM, in vitro
T1 sequence (P15428 1-266): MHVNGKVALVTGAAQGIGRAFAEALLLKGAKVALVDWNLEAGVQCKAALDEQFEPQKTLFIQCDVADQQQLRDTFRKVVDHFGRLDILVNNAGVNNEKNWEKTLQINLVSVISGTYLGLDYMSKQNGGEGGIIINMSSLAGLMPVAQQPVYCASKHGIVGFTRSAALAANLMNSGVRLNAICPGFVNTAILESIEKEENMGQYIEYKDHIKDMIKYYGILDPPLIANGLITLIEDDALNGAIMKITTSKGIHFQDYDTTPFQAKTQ

| Structure (SMILES) | IC50 |
| --- | --- |
| Nc1c(C(=O)N2CCCCC2)sc2nc(-c3cccs3)cc(-c3ccccc3)c12 [SW 218331, (3-amino-4-phenyl-6-(thiophen-2-yl)thieno[2,3-b]pyridin-2-yl)(piperidin-1-yl)methanone] | 41 nM |
| Nc1c([S+]([O-])C2CCCCC2)sc2nc(-c3cccs3)cc(-c3ccccc3)c12 (stereo not drawn) [SW 218520, 2-(cyclohexylsulfinyl)-4-phenyl-6-(thiophen-2-yl)thieno[2,3-b]pyridin-3-amine] | 3.3 nM |
| CCCC[S+]([O-])c1sc2nc(-c3nccs3)cc(-c3cnc(OC)n3C)c2c1N (stereo not drawn) [SW 213155, 2-(butylsulfinyl)-4-(2-methoxy-1-methyl-1H-imidazol-5-yl)-6-(thiazol-2-yl)thieno[2,3-b]pyridin-3-amine] | 19 nM |
| CCCC[S+]([O-])c1sc2nc(-c3nccs3)cc(-c3cnc(C)n3C3CC3)c2c1N (stereo not drawn) [SW 218478, 2-(butylsulfinyl)-4-(1-cyclopropyl-2-methyl-1H-imidazol-5-yl)-6-(thiazol-2-yl)thieno[2,3-b]pyridin-3-amine] | 2.4 nM |
| CCCC[S+]([O-])c1sc2nc(-c3ncc(C)s3)cc(-c3cnc(C)n3C)c2c1N (stereo not drawn) [SW 213208, 2-(butylsulfinyl)-4-(1,2-dimethyl-1H-imidazol-5-yl)-6-(5-methylthiazol-2-yl)thieno[2,3-b]pyridin-3-amine] | 7.5 nM |
| CCOC[S+]([O-])c1sc2nc(-c3nccs3)cc(-c3cnc(C)n3C)c2c1N (stereo not drawn) [SW 218398, 4-(1,2-dimethyl-1H-imidazol-5-yl)-2-((ethoxymethyl)sulfinyl)-6-(thiazol-2-yl)thieno[2,3-b]pyridin-3-amine] | 9.1 nM |
| CCCC[S+]([O-])c1sc2nc(-c3nccs3)cc(-c3nc(C)c(C)n3C)c2c1N (stereo not drawn) [SW 218522, 2-(butylsulfinyl)-6-(thiazol-2-yl)-4-(1,4,5-trimethyl-1H-imidazol-2-yl)thieno[2,3-b]pyridin-3-amine] | 2.5 nM |
| CCCC[S+]([O-])c1sc2nc(-c3nccs3)cc(-c3nccn3CC)c2c1N (stereo not drawn) [SW 218521, 2-(butylsulfinyl)-4-(1-ethyl-1H-imidazol-2-yl)-6-(thiazol-2-yl)thieno[2,3-b]pyridin-3-amine] | 2.2 nM |
| Nc1c(S(=O)(=O)N2CCCCC2)sc2nc(-c3cccs3)cc(-c3ccccc3)c12 [SW 218400] | > 100 nM |
| CCCC[S+]([O-])c1sc2nc(-c3cccs3)cc(-c3ccccc3)c2c1NC(C)=O (stereo not drawn) [SW 218030, N-(2-(butylsulfinyl)-4-phenyl-6-(thiophen-2-yl)thieno[2,3-b]pyridin-3-yl)acetamide] | 6890 nM |
| CCCC[S+]([O-])c1sc2nc(-c3cccs3)cc(-c3ccccc3)c2c1O (stereo not drawn) [SW 218399, 2-(butylsulfinyl)-4-phenyl-6-(thiophen-2-yl)thieno[2,3-b]pyridin-3-ol] | 135 nM |
| CCCC[S+]([O-])c1sc2nc(-c3nccs3)cc(-c3c(C)ncn3C)c2c1N (stereo not drawn) [SW 218475, 2-(butylsulfinyl)-4-(1,4-dimethyl-1H-imidazol-5-yl)-6-(thiazol-2-yl)thieno[2,3-b]pyridin-3-amine] | 3.4 nM |
| COCC[S+]([O-])c1sc2nc(-c3nccs3)nc(-c3ccccc3)c2c1N (stereo not drawn) [SW 217996, 6-((2-methoxyethyl)sulfinyl)-4-phenyl-2-(thiazol-2-yl)thieno[2,3-d]pyrimidin-5-amine] | 3.4 nM |
| CCCC[S+]([O-])c1sc2nc(-c3cccs3)cc(-c3ccccc3)c2c1NC(=O)OC (stereo not drawn) [SW 218031, methyl (2-(butylsulfinyl)-4-phenyl-6-(thiophen-2-yl)thieno[2,3-b]pyridin-3-yl)carbamate] | 1380 nM |
| CCCC[S+]([O-])c1sc2nc(-c3nccs3)cc(-c3cnc(CC)n3C)c2c1N (stereo not drawn) [SW 218476, 2-(butylsulfinyl)-4-(2-ethyl-1-methyl-1H-imidazol-5-yl)-6-(thiazol-2-yl)thieno[2,3-b]pyridin-3-amine] | 2 nM |
| COCCC[S+]([O-])c1sc2nc(-c3nccs3)nc(-c3ccccc3)c2c1N (stereo not drawn) [SW 217995, 6-((3-methoxypropyl)sulfinyl)-4-phenyl-2-(thiazol-2-yl)thieno[2,3-d]pyrimidin-5-amine] | 3 nM |
| CCCNS(=O)(=O)c1sc2nc(-c3cccs3)cc(-c3ccccc3)c2c1N [SW 218332, 3-amino-4-phenyl-N-propyl-6-(thiophen-2-yl)thieno[2,3-b]pyridine-2-sulfonamide] | 113 nM |
| CCCC[S+]([O-])c1sc2nc(-c3nccs3)cc(-c3cnnn3C)c2c1N (stereo not drawn) [SW 217782, 2-(butylsulfinyl)-4-(1-methyl-1H-1,2,3-triazol-5-yl)-6-(thiazol-2-yl)thieno[2,3-b]pyridin-3-amine] | 5.4 nM |
| Nc1c([S+]([O-])c2ccccc2)sc2nc(-c3nccs3)cc(-c3ccc(OCCO)cc3)c12 (stereo not drawn) [SW 217997, 2-(4-(3-amino-2-(phenylsulfinyl)-6-(thiazol-2-yl)thieno[2,3-b]pyridin-4-yl)phenoxy)ethan-1-ol] | 12 nM |
| CCCC[S+]([O-])c1sc2nc(-c3nccs3)cc(-c3ncn(C)c3C)c2c1N (stereo not drawn) [SW 218477, 2-(butylsulfinyl)-4-(1,5-dimethyl-1H-imidazol-4-yl)-6-(thiazol-2-yl)thieno[2,3-b]pyridin-3-amine] | 3.8 nM |

The remaining lines, values ahead:

| IC50 | Structure (SMILES) |
| --- | --- |
| 4 nM | CCCC[S+]([O-])c1sc2nc(-c3nccs3)cc(-c3ccc(CC(=O)OC)cc3)c2c1N (stereo not drawn) [SW 213150, Methyl 2-(4-(3-amino-2-(butylsulfinyl)-6-(thiazol-2-yl)thieno[2,3-b]pyridin-4-yl)phenyl)acetate] |
| 2.1 nM | CCCC[S+]([O-])c1sc2nc(-c3nccs3)cc(-c3scnc3C)c2c1N (stereo not drawn) [SW 217938, 2-(butylsulfinyl)-4-(4-methylthiazol-5-yl)-6-(thiazol-2-yl)thieno[2,3-b]pyridin-3-amine] |
| 1.8 nM | CCCC[S+]([O-])c1sc2nc(-c3nccs3)cc(-c3nc(C)cs3)c2c1N (stereo not drawn) [SW 217937, 2-(butylsulfinyl)-4-(4-methylthiazol-2-yl)-6-(thiazol-2-yl)thieno[2,3-b]pyridin-3-amine] |
| 3.3 nM | CCCC[S+]([O-])c1sc2nc(-c3nccs3)cc(-c3ccc(COC(=O)NCCN(C)C)cc3)c2c1N (stereo not drawn) [SW 212834, 4-(3-amino-2-(butylsulfinyl)-6-(thiazol-2-yl)thieno[2,3-b]pyridin-4-yl)benzyl (2-(dimethylamino)ethyl)carbamate] |
| 4.5 nM | CCCC[S+]([O-])c1sc2nc(-c3nccs3)cc(-c3ocnc3C)c2c1N (stereo not drawn) [SW 217939, 2-(butylsulfinyl)-4-(4-methyloxazol-5-yl)-6-(thiazol-2-yl)thieno[2,3-b]pyridin-3-amine] |
| 4.2 nM | C=CCNC(=O)COc1ccc(-c2cc(-c3nccs3)nc3sc([S+]([O-])CCCC)c(N)c23)cc1 (stereo not drawn) [SW 212835, N-allyl-2-(4-(3-amino-2-(butylsulfinyl)-6-(thiazol-2-yl)thieno[2,3-b]pyridin-4-yl)phenoxy)acetamide] |
| 5 nM | CCCC[S+]([O-])c1sc2nc(-c3nccs3)cc(-c3ccc(CNC(=O)CN(C)C)cc3)c2c1N (stereo not drawn) [SW 213210, N-(4-(3-amino-2-(butylsulfinyl)-6-(thiazol-2-yl)thieno[2,3-b]pyridin-4-yl)benzyl)-2-(dimethylamino)acetamide] |
| 2.2 nM | CCCC[S+]([O-])c1sc2nc(-c3nccs3)cc(-c3cocn3)c2c1N (stereo not drawn) [SW 217936, 2-(butylsulfinyl)-4-(oxazol-4-yl)-6-(thiazol-2-yl)thieno[2,3-b]pyridin-3-amine] |
| 4 nM | CCCC[S+]([O-])c1sc2nc(-c3nccs3)cc(-c3ccc(C(=O)NCCO)cc3)c2c1N (stereo not drawn) [SW 212831, 4-(3-amino-2-(butylsulfinyl)-6-(thiazol-2-yl)thieno[2,3-b]pyridin-4-yl)-N-(2-hydroxyethyl)benzamide] |
| 3.1 nM | CCCC[S+]([O-])c1sc2nc(-c3nccs3)cc(-c3ccnn3C)c2c1N (stereo not drawn) [SW 217780, 2-(butylsulfinyl)-4-(1-methyl-1H-pyrazol-5-yl)-6-(thiazol-2-yl)thieno[2,3-b]pyridin-3-amine] |
| 2.8 nM | CCCC[S+]([O-])c1sc2nc(-c3nccs3)cc(-c3ccc(CNC(=O)NCCO)cc3)c2c1N (stereo not drawn) [SW 213209, 1-(4-(3-amino-2-(butylsulfinyl)-6-(thiazol-2-yl)thieno[2,3-b]pyridin-4-yl)benzyl)-3-(2-hydroxyethyl)urea] |
| 3.2 nM | CCCC[S+]([O-])c1sc2nc(-c3nccs3)cc(-c3ccc(OCCF)cc3)c2c1N (stereo not drawn) [SW 217998, 2-(butylsulfinyl)-4-(4-(2-fluoroethoxy)phenyl)-6-(thiazol-2-yl)thieno[2,3-b]pyridin-3-amine] |
| 2 nM | CCCC[S+]([O-])c1sc2nc(-c3nccs3)cc(-c3ccc(COCCO)cc3)c2c1N (stereo not drawn) [SW 213153, 2-((4-(3-amino-2-(butylsulfinyl)-6-(thiazol-2-yl)thieno[2,3-b]pyridin-4-yl)benzyl)oxy)ethan-1-ol] |
| 2.9 nM | CCCC[S+]([O-])c1sc2nc(-c3nccs3)cc(-c3ccc(CNC(=O)COC)cc3)c2c1N (stereo not drawn) [SW 213211, N-(4-(3-amino-2-(butylsulfinyl)-6-(thiazol-2-yl)thieno[2,3-b]pyridin-4-yl)benzyl)-2-methoxyacetamide] |

same assay, conditions: read-out: Enzyme Inhibitor IC50 (nM) at 5 nM 15-PGDH; recombinant human 15-PGDH at 5 nM, in vitro

| IC50 | Structure (SMILES) |
| --- | --- |
| 0.9 nM | CCCC[S@@+]([O-])c1sc2nc(-c3nccs3)cc(-c3cncn3C)c2c1N (single isomer, unassigned) [(+)-SW 217985] |
| 765 nM | CCCC[S@+]([O-])c1sc2nc(-c3nccs3)cc(-c3cncn3C)c2c1N (single isomer, unassigned) [(−)-SW 217986] |

same assay, conditions: recombinant human 15-PGDH at 5 nM

| extent of 15-PGDH inhibition (remark) | Structure (SMILES) |
| --- | --- |
| incomplete inhibition | Nc1c(S(=O)(=O)N2CCCCC2)sc2nc(-c3cccs3)cc(-c3ccccc3)c12 [SW 218400] |

system: not listed separately; assay: aqueous solubility in pH 7 or pH 4 citrate buffer solution; format: physicochemical; conditions: citrate buffer solution, pH 4, aqueous buffer, pH 4 citrate buffer solution; read-out: pH 4 solubility

| solubility | Structure (SMILES) |
| --- | --- |
| 88 µg/mL (≈ 218 µM) | CCC[S+]([O-])c1sc2nc(-c3nccs3)cc(-c3nccn3C)c2c1N (stereo not drawn) [SW 209280] |

same assay, conditions: citrate buffer solution, pH 7, aqueous buffer, pH 7 citrate buffer solution; read-out: pH 7 solubility

| solubility | Structure (SMILES) |
| --- | --- |
| 17 µg/mL (≈ 42.1 µM) | CCC[S+]([O-])c1sc2nc(-c3nccs3)cc(-c3nccn3C)c2c1N (stereo not drawn) [SW 209280] |
